Read-outs that look alike come from different tables or passages of the source. Non-standard residues stand in square brackets, D forms with d. Residues, ends and D or L forms follow the SMILES beside them. 1Nal = N[C@@H](Cc1cccc2ccccc12)C(=O)O; d1Nal = N[C@H](Cc1cccc2ccccc12)C(=O)O; d2Nal = N[C@H](Cc1ccc2ccccc2c1)C(=O)O
How the values were obtained:
B16 melanoma cells = assay: Measurement of 50% inhibitory concentration of cAMP production (IC50) with 10 nM melanocyte-stimulating hormone; type: cell-based
Protocol: The 50% inhibitory concentration of cAMP production (IC50) according to the present invention regarding the compounds having a melanocyte-stimulating hormone (MSH) inhibitory activity is measured and defined as follows.
Namely, B16 melanoma cells are inoculated on a 12-well plate in such way that 1×10^4 cells are inoculated into 1 well, and cultured at 37° C. for 48 hours in the presence of 5% CO2. After the culturing, the wells are washed with 1 ml of a serum-free medium (serum-free D-MEM medium) per 1 well. Then, a serum-free medium containing 1 mM 3-isobutyl-1-methylxanthine, 10 nM melanocyte-stimulating hormone and a compound to be tested at a different concentration is added in an amount of 1 ml per 1 well, followed by incubation at 37° C. for 5 minutes. After the incubation, the medium is completely removed from the plate, 1 ml of ice-cooled 2.5% perchloric acid is exactly added thereto, and then the whole is incubated for 30 minutes under ice-cooling to extract cAMP from within the cells. After the incubation, the extract solution is neutralized by adding 4.2M potassium hydroxide solution in an amount of […] per 1 well.
The neutralized extract solution is centrifuged at 4° C. at 12,000 rpm for 10 minutes, and the amount of cAMP in the supernatant is quantitatively determined using “Biotrak cAMP EIA System” (manufactured by Amersham Pharmacia Biotech), as follows. By the way, all the operations are carried out at 5° C. or lower. First, cAMP authentic samples are prepared so as to be 0 to 3200 fM, and each sample is placed in an amount of 100 μl in a 96-well plate. Then, 200 μl of 0.05M acetate buffer (pH 5.8, containing 0.02% serum and 0.01% antiseptic agent) is placed in an NSB well (Non-specific Binding Well) and 100 μl in a blank well. In a sample well is placed 100 μl of a sample to be evaluated. In each of all the wells except for the blank well and the NSB well is added 100 μl of antiserum. The 96-well plate is capped, slowly shaken, and incubated at 3 to 5° C. for 2 hours. After the incubation, 50 μl of cAMP peroxidase is added to each of all the wells except for the blank well. The plate is capped and incubated at 3 to 5° C. for 1 hour. After the incubation, each of all the wells is washed four times with 400 μl in total of 0.01M phosphate buffer (pH 7.5, containing 0.05% “Tween 20”). The liquid remaining in the wells is removed by placing the plate in such manner that the opening parts of the wells face downward, and patting the plate on a paper.
To each of all the wells is added 150 μl of an enzyme substrate, and the plate is shaken at 15 to 30° C. for 1 hour. After the shaking, 100 μl of 1 M sulfuric acid is added to each well, and absorbance at 450 nm is measured. A calibration curve is prepared from the absorbance of the cAMP authentic samples and the amount of cAMP of each sample is determined.
The 50% inhibitory concentration of cAMP production (IC50) is defined by the value in terms of nM unit, of a 50% inhibitory concentration obtained by the above procedures, of a test compound against cAMP production with 10 nM melanocyte-stimulating hormone.
According to the method of measuring the 50% inhibitory concentration of cAMP production (IC50) explained in the above, IC50 was measured on the agents listed in following Table 2, i.e., D-1-Nal-Arg-LeuNH2, D-2-Nal-Arg-LeuNH2, L-1-Nal-Arg-LeuNH2 and D-Trp-Arg-LeuNH2.

Human melanocytes = assay: Test on suppression of the melanin formation caused by human melanocytes (MSH added); type: cell-based; settings: for Melanin formation suppressing activity (evaluation class): class of minimum concentration showing melanin formation suppressing activity; for Suppression rate of the melanin formation: human melanocytes + MSH, 6th day
Protocol: Human melanocytes in logarithmic growth phase were treated with trypsin and inoculated to a 6-well plate with “Medium 154s” (manufactured by Kurabo Industries Ltd., containing a growth factor (HMGS)), in an amount of 1.5×10^5 per 1 well in terms of cell number. The cells were cultured at 37° C. in a carbon dioxide incubator, the CO2 concentration being 5%, for 1 day. Thereafter, rinsing was carried out with the use of HBS (Hepes Buffer Saline), followed by medium replacement with “MCDB153” (containing fetal bovine serum, insulin, b-FGF, transferrin, and tocopherol), and followed by culturing for further 2 days. A whitening agent (containing a compound to be tested) was prepared with “MCDB153” (containing fetal bovine serum, insulin, b-FGF, transferrin, and tocopherol)+melanocyte-stimulating hormone in such way that the concentration would be 200 μM, 20 μM, or 2 μM, and was added to the 6-well plate. Also, a further 6-well plate culture was carried out with the use of “MCDB153” (containing fetal bovine serum, insulin, b-FGF, transferrin, and tocopherol)+melanocyte-stimulating hormone without the whitening agent, and still further a 6-well plate culture was carried out with the use of “MCDB153” (containing fetal bovine serum, insulin, b-FGF, transferrin, and tocopherol) alone, at the same time. The medium replacement with the above “MCDB153” (containing fetal bovine serum) containing a whitening agent was carried out twice every 2 days.
After the first addition of the whitening agent, the effect of suppressing the melanin formation was confirmed on the 6th day. Namely, the medium on each 6-well plate was removed by suction, and the wells were rinsed with HBS. Thereafter, the 6-well plate was air-dried, and ⅕M NaOH (230 μl) was added to the wells to dissolve the melanin out of the melanocytes. The solution (200 μl) was evaluated by Abs (absorbance) on a microplate reader (475 nm). The suppression rate of the melanin formation by each compound tested was calculated according to the following equation (1). The suppression rate of the melanin formation(%)={1−(A1−A3)/(A2−A3)}×100 (1) • A1: absorbance at 475 nm when both of the compound to be tested and MSH were added. • A2: absorbance at 475 nm when the compound to be tested was not added and MSH was added. • A3: absorbance at 475 nm when both of the compound to be tested and MSH were not added.

[1] = Test of stability during storage (coloring of aqueous 0.1% solution, APHA method); type: physicochemical; settings: for Degree of coloring (APHA Standard color): aqueous 0.1% solution stored at 4° C. for 6 months; for Stability during storage (evaluation class): class of degree of coloring, APHA standard colors
Protocol: An aqueous 0.1% solution of D-2-Nal-Arg-LeuNH2 of the present invention, and that of D-Trp-Arg-LeuNH2 which is a known melanocyte-stimulating hormone inhibitor were prepared and stored at 4° C. for 6 months, respectively. The stability during storage was evaluated by comparing the degree of coloring with standard colors of APHA (American Public Healthy Association) method.

[2] = system: Weiser-Maples brown guinea pigs; assay: Inhibitory test of melanocyte-stimulating hormone in living body (test of suppressing pigmentation in brown guinea pigs); type: in vivo, guinea pig; design: key: ◯: positive pigmentation suppressing effect; X: no pigmentation suppressing effect; —: not tested; settings: 50 mM in 50% ethanol-water applied to skin, UVB irradiation, ΔL* vs 50% ethanol
Protocol: Inhibitory test of melanocyte-stimulating hormone was carried out by repeating the application of each test compound on a guinea pig and irradiation with ultraviolet rays, followed by measuring the degree of coloring, as follows.
D-2-Nal-Arg-LeuNH2 (50 mM, dissolved in 50% ethanol-water) and D-Trp-Arg-LeuNH2 (50 mM, dissolved in 50% ethanol-water) were used, and 50% ethanol-water was used as the control.
Male Weiser-Maples brown guinea pigs (4 weeks old) were purchased from Tokyo Experimental Animal K.K. and used after pre-reared for 7 weeks.
The brown guinea pigs were individually fixed by means of a fixing instrument and shaved in a square shape of about 3 cm×3 cm on their back with the use of a pair of hair clippers “THRIVE MODEL 6000AD” (manufactured by Natsume Seisakusyo) and “Home Hair Clipper Ceramic ER722” (manufactured by National) and an electric shaver “Dual 1500AC/RC” (manufactured by BRAUN). The skin after shaved was wiped with a water-soaked absorbent cotton, and the moisture was removed with a paper towel “KIMWIPE” (manufactured by CRECIA).
The skin of the back of the shaven brown guinea pigs was wiped with an ethanol-soaked absorbent cotton, and the horny layer having an area of about 2 cm×2 cm was subjected to tape stripping five times with the use of an adhesive tape “Scotch 313D” (manufactured by 3M). […]

[3] = B16 melanoma cells, 10 nM melanocyte-stimulating hormone, 5 min incubation, read-out: 50% inhibitory concentration (IC50) of cAMP production
[4] = class of 50% inhibitory concentration in the test, read-out: MSH inhibitory activity (evaluation class)

Structure (SMILES)	IC50 (B16 melanoma cells; [3]) [nM]	IC50 (B16 melanoma cells; [4]) [nM]	Melanin formation suppressing activity (evaluation class) (Human melanocytes)	Suppression rate of the melanin formation (Human melanocytes; concentration 20 μM) [%]	Suppression rate of the melanin formation (Human melanocytes; concentration 200 μM) [%]	Suppression rate of the melanin formation (Human melanocytes; concentration 2 μM) [%]	Degree of coloring (APHA Standard color) [1] [APHA]	Stability during storage (evaluation class) [1]	Brown Guinea pig pigmentation suppressing test (evaluation) [2]
CC(C)C[C@H](NC(=O)[C@H](CCCNC(=N)N)NC(=O)[C@H](N)Cc1cccc2ccccc12)C(N)=O [D-1-Nal-Arg-LeuNH2] (H-[d1Nal]-Arg-Leu-NH2)	540	101 to 1000	B (11 to 100 μM)	43	52	–	–	–	–
CC(C)C[C@H](NC(=O)[C@H](CCCNC(=N)N)NC(=O)[C@H](N)Cc1ccc2ccccc2c1)C(N)=O [D-2-Nal-Arg-LeuNH2] (H-[d2Nal]-Arg-Leu-NH2)	42	≤ 100	A (1 to 10 μM)	51	70	49	20	A (20 or less)	◯
CC(C)C[C@H](NC(=O)[C@H](CCCNC(=N)N)NC(=O)[C@H](N)Cc1c[nH]c2ccccc12)C(N)=O [D-Trp-Arg-LeuNH2, reference compound] (H-[dW]-Arg-Leu-NH2)	230	101 to 1000	B (11 to 100 μM)	24	57	–	200	C (101 or more)	X
CC(C)C[C@H](NC(=O)[C@H](CCCNC(=N)N)NC(=O)[C@@H](N)Cc1cccc2ccccc12)C(N)=O [L-1-Nal-Arg-LeuNH2] (H-[1Nal]-Arg-Leu-NH2)	470	101 to 1000	B (11 to 100 μM)	8	28	–	–	–	–
